# Test results reported in patent publication US11696913B2, “Prolonged ectoparasite-controlling agent for animal” (MITSUI CHEMICALS AGRO, INC., priority 2017, dated 2023).
# Where two headings read alike, the source gives them in different places.
# Key:
# [1] = test system: Rhipicephalus sanguineus; experiment: In vitro contact test with adult hard ticks (Rhipicephalus sanguineus); conditions: read-out: acaricidal activity; for pest or weed control at 0.2 µg/cm2, 0.2 µg/cm2: dose 0.2 μg/cm^2, 48 h; for pest or weed control at 1 µg/cm2, 1 µg/cm2: dose 1 μg/cm^2, 48 h; for pest or weed control at 0.04 µg/cm2, 0.04 µg/cm2: dose 0.04 μg/cm^2, 48 h
# Outline: (§1)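 Adult R. sanguineus, I. ricinus, D. variabilis or A. americanum nymphs exposed in glass vials coated with compound from acetone (900 ppm gives 5 μg/cm^2). Held 48 h at room temperature (R. sanguineus) or 21° C., 85% rel. hum.; then heated at 45-50° C. ≤5 min, motionless or uncoordinated ticks scored dead/moribund.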
# [2] = test system: Spodoptera litura; experiment: Insecticidal testing against common cutworm; format: in vivo; conditions: foliar, 144 h, concentration 100 ppm, cabbage leaf dip, second-stage larvae, after 6 days, read-out: pesticidal rate
# Excerpt: Insecticidal Testing Against Common Cutworm (Spodoptera litura)
# [3] = test system: Ctenocephalides felis; experiment: In vitro contact test with fleas; conditions: read-out: insecticidal activity; for pest or weed control at 0.2 µg/cm2, 0.2 µg/cm2: dose 0.2 μg/cm^2, dead or moribund fleas after 48 h; for pest or weed control at 1 µg/cm2, 1 µg/cm2: dose 1 μg/cm^2, dead or moribund fleas after 48 h; for pest or weed control at 0.04 µg/cm2, 0.04 µg/cm2: dose 0.04 μg/cm^2, dead or moribund fleas after 48 h
# Outline: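 Adult male and female cat fleas (5-10 per tube) placed in glass tubes coated with compound from acetone solution (900 ppm gives 5 μg/cm^2), kept at room temperature and ambient humidity. After 48 h, motionless or uncoordinated fleas scored dead or moribund; activity expressed as % dead or moribund.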
# [4] = test system: Plutella xylostella; experiment: Insecticidal testing against diamondback moth; format: in vivo; conditions: foliar, 144 h, concentration 100 ppm, cabbage leaf dip, third-stage larvae, after 6 days, read-out: pesticidal rate
# Excerpt: Insecticidal Testing Against Diamondback Moth (Plutella xylostella)
# [5] = test system: Ctenocephalides felis; experiment: Ctenocephalides felis in-vitro feeding test with fleas (CTECFE oral); conditions: 48 hours, read-out: insecticidal feeding activity; for pest or weed control at 0.032 ppm: dose 0.032 ppm in citrated cattle blood; for pest or weed control at 0.16 ppm: dose 0.16 ppm in citrated cattle blood; for pest or weed control at 0.8 ppm: dose 0.8 ppm in citrated cattle blood; for pest or weed control at 4 ppm: dose 4 ppm in citrated cattle blood
# Outline: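 About 20 unfed adult cat fleas fed through parafilm on citrated cattle blood containing test substance (DMSO solution diluted in blood), held at about 37° C. Kill rate scored after 48 hours, 100% meaning all fleas dead.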
# [6] = test system: Laodelphax striatellus; experiment: Insecticidal testing against small brown planthopper; format: in vivo; conditions: 144 h, concentration 100 ppm, sprayed rice seedlings, after 6 days, read-out: pesticidal rate
# Outline: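 Acetone solution of compound at a set concentration sprayed onto rice seedlings, air-dried, then exposed to 10 planthoppers (one group). Held at 25° C; survival rate recorded after 6 days.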
# [7] = test system: Rhipicephalus (Boophilus) microplus; experiment: In vitro injection test with Rhipicephalus (Boophilus) microplus (BOOPMI Inj); conditions: 168 h, laid fertile eggs after 7 days, read-out: acaricidal activity; for pest or weed control at 32 ng: dose 0.032 μg/animal injected; for pest or weed control at 0.00016 mg: dose 0.16 μg/animal injected; for pest or weed control at 0.0008 mg: dose 0.8 μg/animal injected
# Outline: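 Test substance in DMSO; 1 μl injected into abdomen of each of 5 engorged adult female ticks, then held at 28° C., 85% rel. hum. Activity scored after 7 days from laying of fertile eggs: 100% = no eggs or all infertile, 0% = all eggs fertile.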
# [8] = test system: Ctenocephalides felis; experiment: Systemic treatment in-vivo test with cat flea on rats; conditions: Ctenocephalides felis, ip, intraperitoneal injection, 10 mg/kg
# Protocol: Systemic Treatment In-Vivo Test with American Dog Tick Nymph and Cat Flea on Rats
# Type of study and overall study design: The method is a randomized non-blinded efficacy study in accordance with European animal welfare requirements. Rats (Rattus norvegicus) were randomized based on pre-treatment flea counts. The efficacy of treatment was determined by comparison of the flea and tick counts of different treatment groups versus the placebo-treated control group. The experimental unit was the individual study animal. Method and route of administration: The compound was applied in a suitable solvent and carrier (more specifically, added to glycerol formal; in case of poorly soluble compounds, a solvent mixture with up to 25% by volume of N-methyl pyrrolidone may be used.) considering the individual body weight as an intraperitoneal injection.
# Experimental infestation: On the day of treatment and weekly thereafter, 30 ticks (D. variabilis nymphs) were released onto the back of each rat, and 30 fleas (C. felis) were released onto the back of each rat 24 h later.
# Tick and Flea counting: Rats were thoroughly examined and ticks and fleas were manually removed 48 h (±4 h) after tick infestation and 24 h after flea infestation. Live fleas and live attached engorged ticks were counted. In non-evident cases, engorgement status was evaluated by squeezing the tick on a filter paper to find traces of blood as sign for engorgement.
# [9] = test system: Amblyomma americanum; experiment: In vitro contact test with hard ticks (Amblyomma americanum nymphs); conditions: read-out: acaricidal activity; for pest or weed control at 1 µg/cm2, 1 µg/cm2: dose 1 μg/cm^2, 48 h; for pest or weed control at 0.04 µg/cm2, 0.04 µg/cm2: dose 0.04 μg/cm^2, 48 h; for pest or weed control at 0.2 µg/cm2, 0.2 µg/cm2: dose 0.2 μg/cm^2, 48 h
# Outline: as §1
# [10] = test system: Dermacentor variabilis; experiment: In vitro contact test with adult hard ticks (Dermacentor variabilis); conditions: read-out: acaricidal activity; for pest or weed control at 0.2 µg/cm2, 0.2 µg/cm2: dose 0.2 μg/cm^2, 48 h; for pest or weed control at 1 µg/cm2, 1 µg/cm2: dose 1 μg/cm^2, 48 h; for pest or weed control at 0.04 µg/cm2, 0.04 µg/cm2: dose 0.04 μg/cm^2, 48 h
# Outline: as §1
# [11] = test system: Ixodes ricinus; experiment: In vitro contact test with adult hard ticks (Ixodes ricinus); conditions: read-out: acaricidal activity; for pest or weed control at 5 µg/cm2, 5 µg/cm2: dose 5 μg/cm^2, 48 h; for pest or weed control at 0.2 µg/cm2, 0.2 µg/cm2: dose 0.2 μg/cm^2, 48 h; for pest or weed control at 1 µg/cm2, 1 µg/cm2: dose 1 μg/cm^2, 48 h
# Outline: as §1
# [12] = SD 2, read-out: Geometric mean percent reduction in live flea (Ctenocephalides felis) counts compared to untreated control rats
# [13] = SD 9, read-out: Geometric mean percent reduction in live flea (Ctenocephalides felis) counts compared to untreated control rats
# [14] = SD 16, read-out: Geometric mean percent reduction in live flea (Ctenocephalides felis) counts compared to untreated control rats
# [15] = SD 23, read-out: Geometric mean percent reduction in live flea (Ctenocephalides felis) counts compared to untreated control rats
SMILES,"pest or weed control at 0.2 µg/cm2, 0.2 µg/cm2 [1] [%]","pest or weed control at 1 µg/cm2, 1 µg/cm2 [1] [%]",pest or weed control at 100 ppm [2] [%],"pest or weed control at 0.2 µg/cm2, 0.2 µg/cm2 [3] [%]","pest or weed control at 1 µg/cm2, 1 µg/cm2 [3] [%]",pest or weed control at 100 ppm [4] [%],pest or weed control at 0.032 ppm [5] [%],pest or weed control at 0.16 ppm [5] [%],pest or weed control at 0.8 ppm [5] [%],pest or weed control at 4 ppm [5] [%],pest or weed control at 100 ppm [6] [%],pest or weed control at 32 ng [7] [%],pest or weed control at 0.00016 mg [7] [%],pest or weed control at 0.0008 mg [7] [%],"pest or weed control at 1 µg/cm2, 1 µg/cm2 [9] [%]","pest or weed control at 0.04 µg/cm2, 0.04 µg/cm2 [3] [%]","pest or weed control at 0.2 µg/cm2, 0.2 µg/cm2 [10] [%]","pest or weed control at 1 µg/cm2, 1 µg/cm2 [10] [%]","pest or weed control at 5 µg/cm2, 5 µg/cm2 [11] [%]","pest or weed control at 0.04 µg/cm2, 0.04 µg/cm2 [1] [%]",further results
"CN(C(=O)c1ccc(F)cc1)c1cccc(C(=O)Nc2c(I)cc(C(F)(C(F)(F)F)C(F)(F)F)cc2S(=O)(=O)C(F)(F)F)c1F [Compound 70, 2-fluoro-3-(4-fluoro-N-methylbenzamido)-N-(2-iodo-4-(perfluoropropan-2-yl)-6-((trifluoromethyl)sulfonyl)phenyl)benzamide]",90,90,≥ 70,95,95,≥ 70,95,95,95,95,≥ 70,100,100,100,,,,,,,"inhibition in vivo at 10 mg/kg [8, 12]: 99%; inhibition in vivo at 10 mg/kg [8, 13]: 100%; inhibition in vivo at 10 mg/kg [8, 14]: 99%; inhibition in vivo at 10 mg/kg [8, 15]: 49%; inhibition in vivo at 10 mg/kg ([8]; SD 30, read-out: Geometric mean percent reduction in live flea (Ctenocephalides felis) counts compared to untreated control rats): 7%"
CN(C(=O)c1ccc(F)cc1)c1cccc(C(=O)Nc2c(Br)cc(C(F)(C(F)(F)F)C(F)(F)C(F)(F)F)cc2C(F)(F)F)c1F (centres unmarked) [Compound 93],,,≥ 70,95,95,≥ 70,95,95,95,95,≥ 70,100,100,100,90,95,90,90,90,,"inhibition in vivo at 10 mg/kg [8, 12]: 100%; inhibition in vivo at 10 mg/kg [8, 13]: 97%; inhibition in vivo at 10 mg/kg [8, 14]: 68%; inhibition in vivo at 10 mg/kg [8, 15]: 14%"
O=C(Nc1cccc(C(=O)Nc2c(Br)cc(C(F)(C(F)(F)F)C(F)(F)C(F)(F)F)cc2OC(F)F)c1F)c1ccc(F)cc1 (centres unmarked) [Compound 106],90,90,≥ 70,95,95,≥ 70,95,95,95,95,≥ 70,100,100,100,90,95,90,90,90,90,"pest or weed control at 0.04 µg/cm2, 0.04 µg/cm2 [9]: 90%; pest or weed control at 0.2 µg/cm2, 0.2 µg/cm2 [9]: 90%; pest or weed control at 0.0064 ppm ([5]; dose 0.0064 ppm in citrated cattle blood): 95%; pest or weed control at 0.04 µg/cm2, 0.04 µg/cm2 [10]: 90%; pest or weed control at 0.2 µg/cm2, 0.2 µg/cm2 [11]: 90%; pest or weed control at 1 µg/cm2, 1 µg/cm2 [11]: 90%; pest or weed control at 6.4 ng ([7]; dose 0.0064 μg/animal injected): 100%"
O=C(Nc1cccc(C(=O)Nc2c(I)cc(C(F)(C(F)(F)F)C(F)(F)F)cc2C(F)(F)F)c1F)c1ccc(F)c(F)c1 [Compound 86],90,90,≥ 70,95,95,≥ 70,95,95,95,95,≥ 70,100,100,100,90,95,90,90,90,90,"pest or weed control at 0.04 µg/cm2, 0.04 µg/cm2 [9]: 90%; pest or weed control at 0.2 µg/cm2, 0.2 µg/cm2 [9]: 90%; pest or weed control at 0.04 µg/cm2, 0.04 µg/cm2 [10]: 90%; pest or weed control at 0.2 µg/cm2, 0.2 µg/cm2 [11]: 90%; pest or weed control at 1 µg/cm2, 1 µg/cm2 [11]: 90%"
O=C(Nc1cccc(C(=O)Nc2c(Br)cc(C(F)(C(F)(F)F)C(F)(F)C(F)(F)F)cc2OC(F)(F)F)c1F)c1ccc(F)cc1 (centres unmarked) [Compound 95],90,90,≥ 70,95,95,≥ 70,,95,95,95,≥ 70,100,100,100,90,,,90,90,90,"pest or weed control at 0.04 µg/cm2, 0.04 µg/cm2 [9]: 90%; pest or weed control at 0.2 µg/cm2, 0.2 µg/cm2 [9]: 90%; pest or weed control at 0.2 µg/cm2, 0.2 µg/cm2 [11]: 90%; pest or weed control at 1 µg/cm2, 1 µg/cm2 [11]: 90%"
